Results from patent US8124111B2, “Immunomodulation by altering sphingosine 1-phosphate lyase (SPL) activity” (Children's Hospital & Research Center at Oakland, priority 2005, dated 2012).

How the values were obtained:
[1] = biological target: T1, SPL (Homo sapiens, UniProt O95470); settings: cited from earlier work
T1 sequence (O95470 1-568): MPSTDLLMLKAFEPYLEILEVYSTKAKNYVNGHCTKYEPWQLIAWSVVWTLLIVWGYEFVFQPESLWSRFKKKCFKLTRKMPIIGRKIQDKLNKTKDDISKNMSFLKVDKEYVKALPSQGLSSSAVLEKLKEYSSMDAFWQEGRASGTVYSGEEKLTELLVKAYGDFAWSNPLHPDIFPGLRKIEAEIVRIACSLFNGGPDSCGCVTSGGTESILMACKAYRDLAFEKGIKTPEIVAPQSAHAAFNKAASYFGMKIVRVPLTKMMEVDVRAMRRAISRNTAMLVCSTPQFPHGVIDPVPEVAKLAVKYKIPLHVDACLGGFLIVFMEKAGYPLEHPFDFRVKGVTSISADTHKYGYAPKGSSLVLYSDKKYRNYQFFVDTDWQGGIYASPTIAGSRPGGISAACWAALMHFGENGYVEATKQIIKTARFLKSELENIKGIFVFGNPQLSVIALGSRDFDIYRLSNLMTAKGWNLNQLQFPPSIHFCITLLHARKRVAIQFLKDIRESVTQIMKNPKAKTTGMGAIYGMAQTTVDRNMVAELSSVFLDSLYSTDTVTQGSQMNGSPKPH

[2] = test system: C3H murine splenocytes and thymocytes
Method: Cellular Immune Functions—Mitogen Induced Lymphoproliferation: Spleen and thymus tissues were harvested from wild type C3H mice, and cell suspensions were prepared as described previously (Mishell et al., (1980) in Selected Methods in Cellular Immunology (Mishell, B., and Shiigi, S., eds), pp. 3-27, WH Freeman and Company, San Francisco). Cells were dispersed in sterile medium in 96 well microtiter plates (Falcon) at a concentration of 1×10^6 cells/ml for spleen and 5×10^6 cells/ml for thymus. […] Cell proliferation was determined after 48 and 72 hours using the Cell Titer 96 Non-Radioactive Cell Proliferation Assay from Promega (Mannheim, Germany), according to the manufacturer's instructions.

[3] = test system: human SPL luciferase reporter construct; experiment: SPL gene expression, human SPL luciferase reporter in HEK293 cells; format: cell-based; settings: 0.3 μM or 3.0 μM, 24 hours
Method: (A) SPL gene expression. HEK293 cells were co-transfected with a human SPL luciferase reporter construct and the sea pansy luciferase reporter as a control for transfection efficiency. Twenty-four hours after transfection, cells were treated with 0.3 μM FTY720, 3.0 μM FTY720 or vehicle and incubated for another 24 hours at 37° C. Luciferase activity was then determined as a measure of expression, as described in Experimental Methods. Values shown are luciferase activity normalized to sea pansy luciferase; (B) SPL protein expression. Thymic extracts from control mice (time 0) and mice treated with FTY720 for 24 hours were evaluated for SPL protein expression by immunoblotting. Actin was used as a loading control.
SPL expression: To evaluate the effect of FTY720 and FTY720-P on SPL gene expression, HEK293 cells were treated for 30 minutes with 3 μM of either drug, followed by transfection with pSPL-BamHI, a human SPL-luciferase reporter construct. After 48 hours, reporter expression was determined by luciferase activity as described (Oskouian et al., (2005) J Biol Chem 280, 18403-18410)). Western blotting of mouse tissue extracts was performed using a 1:2000 dilution of polyclonal sera raised against the murine SPL C-terminal peptide: (NH2)—V-T-Q-G-N-Q-M-N-G-S—P—K—P—R—(COOH). [SEQ ID NO:11] […]

[4] = biological target: T1, SPL; experiment: FTY720-P metabolism: stability in the presence of SPL, recovery quantified by HPLC; format: biochemical; parameters: expressed in transfected cells; host or cells: HEK293 infected with adenoviral vector; settings: for stability in the presence of SPL (amount recovered by HPLC): incubated 0-24 hours with extracts of HEK293 cells overexpressing human SPL, standard SPL reaction conditions
Method: (A) Twenty nanomoles of FTY720-P were incubated with SPL enzyme for 0-24 hours under standard SPL reaction conditions in the absence of dihydrosphingosine 1-phosphate substrate. At the indicated times the reaction was stopped, and FTY720-P was recovered and quantified by HPLC. (B) Twenty nanomoles of S1P were incubated with extracts from cells overexpressing SPL for 0-24 hours, or alternatively, with extracts from cells containing pcDNA3.0 vector control which had no appreciable SPL activity (PC) for 2 hours. S1P was recovered and quantified by HPLC.
FTY720-P metabolism: Whole cell extracts of HEK293 cells stably overexpressing human SPL were prepared as previously described (Reiss et al., (2004) J Biol Chem 279, 1281-1290). These extracts contained approximately 700 picomoles/mg protein/minute of SPL activity. Twenty nanomoles FTY720-P were suspended in SPL reaction buffer (Van Veldhoven et al., (1991) J Biol Chem 266, 12502-12507), and 25 microliters of whole cell extract were added to initiate the reaction. At various time points, reaction was stopped by addition of a 2 ml mixture of chloroform and methanol (2:1 v/v), 1 ml of 1M KCl, 0.1 ml concentrated HCl. Sample was mixed by vortexing and centrifuged at 1200 rpm for 5 min. […] After derivatization with OPA, the sample was injected onto the HPLC for quantification. The HPLC analysis was conducted using a Beckman (Torrance, Calif., USA) system Gold 125 solvent module with a Spectra-Physics SP8410 fluorescence detector and a C18 (2) Luna 3 μm, 75×4.6 mm column from Phenomenex (CA). […] Recovery of S1P was determined by HPLC quantitation, as described below for S1P measurements in mouse tissues.
Confirmation of FTY720-P by LCMS: Samples corresponding to FTY720-P peak identified on HPLC were evaluated by LCMS to confirm FTY720-P by mass analysis. Twenty microliters of sample were injected into the LCMS and mass spectrum scans from 300 to 500 m/z and specific ions m/Z 388 and 410 were quantified for FTY720-P. A reverse phase C18 column from Phenomenex (2.1 mm×15 cm) was used. […]

[5] = biological target: T1, SPL; experiment: Inhibition of SPL activity in vitro (whole cell extracts of HEK293 cells with human SPL adenoviral construct); format: biochemical; parameters: expressed in transfected cells; host or cells: HEK293 infected with adenoviral vector
Method: Various concentrations of FTY720 or its phosphorylated derivative (FTY720P) were incubated for 30 minutes on ice with whole cell extracts containing high SPL activity by virtue of a human SPL adenoviral expression construct. SPL activity was determined. (A) FTY720; (B) FTY720-P.
SPL enzyme assay: Tissues were homogenized by sonication in 9 volumes of ice-cold homogenization buffer (5 mM MOPS pH 7.5, 1 mM DTT, 1 mM EDTA, 0.25 M sucrose, and 5 micrograms/ml each chymostatin, leupeptin, pepstatin A and antipain). SPL assays were conducted using 50 micrograms protein per assay and radioactive [4,5 ^3H]DHS1P substrate, as described previously (Reiss et al., (2004) J Biol Chem 279, 1281-1290). For in vitro FTY720 and FTY720-P experiments, drug was incubated with whole cell extracts prepared from HEK293 cells infected with an adenoviral vector expressing human SPL. These extracts contained approximately 200 picomoles/mg protein/minute SPL activity. Drug was incubated with extracts for 30 minutes, followed by addition of extracts to reaction buffer and substrate to initiate the reaction.
Although treatment with FTY720 was associated with low (nanomolar) circulating drug levels, it was possible that local concentrations within cells and subcellular compartments may have been considerably higher, since FTY720 has been reported to be actively transported into cells by the actions of drug transporters that recognize long chain bases (Honig et al., (2003) J Clin Invest 111, 627-637).

**Q.** With `CCCCCCCCCCCCCC1=C([C@@H](O)[C@H](CO)NC(=O)CCCCCCC)C1` [GT11, C8-cyclopropenylceramide] as the compound, how does the “altering SPL activity” value [1] read?
**A.** capable of altering SPL activity

**Q.** What about the “non-specific cytotoxic effects (light microscopy)” value [2] of the same compound?
**A.** negligible

**Q.** And the LPS-stimulated lymphoproliferation ([2]; two different dosages, 24 hours preincubation, 1 or 10 μg/ml LPS, read after 48 and 72 hours)?
**A.** reduced

**Q.** Which results are given for `CCCCCCCCc1ccc(CC[C@](N)(CO)COP(=O)(O)O)cc1` [FTY720-P]?
**A.** SPL gene expression (luciferase activity normalized to sea pansy luciferase) [3]: not affected; stability in the presence of SPL (amount recovered by HPLC) [4]: remained stable for up to 24 hours; substrate for SPL ([4]; standard conditions): did not serve as a substrate for SPL; dose dependence of SPL inhibition in vitro [5]: not dose-dependent; only concentration that was inhibitory to SPL activity in vitro ([5]; 30 minutes incubation with extracts): 30 µM

**Q.** Which “altering SPL activity” value [1] does the source give for `Cc1ncc(CO)c(C)c1O` [deoxypyridoxine] here?
**A.** capable of altering SPL activity

**Q.** With `CCCCCCCCCCCCC/C=C/[C@@H](O)[C@@H](N)COP(=O)(O)O` [S1P, Sphingosine-1-phosphate] as the compound, how does the “stability in the presence of SPL (amount recovered by HPLC)” value [4] read?
**A.** diminished

**Q.** For `CCCCCCCCCCCCCCCC(=O)N[C@@H](CO)[C@H](O)C1=C(CCCCCCCCCCCCC)C1` [C16-cyclopropenylceramide], which “altering SPL activity” value [1] is on record?
**A.** capable of altering SPL activity
